Entries after “also recorded” stand apart in the source; their conditions may differ. Where two headings read alike, the source gives them in different places.
What was measured:
[1] = system: Nras(G12D)/MLL-AF9 leukemic cells; test: Viability of Nras(G12D)/MLL-AF9 leukemic cells cultured with AOA or myriocin; type: cell-based, mouse; conditions: day 3 (FIG. 33A, 34A)
[2] = system: Nras(G12D)/MLL-AF9 leukemia; test: AML mouse model: sub-lethally irradiated mice transplanted with Nras(G12D)/MLL-AF9 cells, compound treatment; type: in vivo; conditions: for animal survival / leukemia disease progression (luciferase signal): daily dosing vs PBS control, isoniazid 90 mg/kg intraperitoneally
Excerpt: PDXK shRNAs were cloned into a doxycycline inducible H2 vector (D9891-25G, Sigma-Aldrich, St. Louis, Mo.). Leukemic cells were infected with viruses encoding shRNAs targeting Renilla luciferase or PDXK, followed by either in vitro culture or transplantation. For in vitro culture experiments, doxycycline was supplemented into culture medium, and the percentage of GFP^+ cells was monitored. For in vivo AML mouse model experiments, the dietary feed of the mice was supplemented with doxycycline, and luciferase expression levels were monitored. For in vivo drug efficacy experiments, leukemic cells were transplanted into sub-lethally irradiated mice. Control PBS or isoniazid (90 mg/kg) was injected 6 hours after transplant and then daily into the transplant containing mice, and luciferase expression levels were monitored. High-performance liquid chromatography-mass spectrometry (HPLC-MS) was performed as previously described in A. M. Intlekofer et al., Nat Chem Biol 13, 494-500 (2017).
For isoniazid injection experiment, Nras(G12D)/MLL-AF9 leukemic cells were collected and resuspended in PBS at a concentration of 5 million/ml. 5-6 weeks old B6-LY5 mice (Charles River Labs, Wilmington Mass.) were sublethally irradiated (450 cGy) and transplanted with 1 million leukemic cells through tail vein injection. PBS or 90 mg/kg isoniazid were intraperitoneally injected daily.
The leukemia disease progress was monitored by in vivo bioluminescent imaging using IVIS Lumina image system (Xenogen) every 3 days. Before imaging, all mice were anesthetized with 2% isoflurane, and anesthesia was also maintained during the image acquisition inside Xenogen dark chamber. 300 mg/kg D-Luciferin (Gold Biotechnology Olivette, Mo.) in PBS at 15 mg/ml was intraperitoneally injected ˜12 minutes before image capturing. The bioluminescence was acquired and quantitatively analyzed by the Living Image software.

[3] = system: human leukemic cells; test: Viability of human leukemic cell lines cultured with AOA; type: cell-based; conditions: human Molm13, Thp1, ml2, Nomo1, Semk2, Kasumi leukemic cells, day 3 (FIG. 34B-34G)
[4] = system: human leukemic cells; test: Proliferation / growth of human leukemic cell lines cultured with compound; type: cell-based; conditions: for growth of human AML cells in vitro: indicated leukemic cell lines (FIG. 17C, 18C)
Description: The average and STDEV of relative cell proliferation are shown.
(§1) Mouse AML cell lines, human AML cell lines, iMEF cell line and 3T3 cell line were infected with virus encoding Cas9 (Addgene 52962, Watertown Mass.) followed with blastcitidin selection to generate Cas9 cell lines. All viral sgRNA infection experiments were performed on Cas9 cell lines. All viral shRNA infection experiments were performed on cell lines carrying rtTA3. Mouse leukemic cell lines including Nras(G12D)/MLL-AF9, MLL-AF9, Nras(G12D)/IDH, Nras(G12D)/NPM1, and IDH/Flt3 were cultured in RPMI medium supplemented with 10% Fetal Bovine Serum (FBS), L-glutamine, penicillin streptomycin, recombinant mouse SCF, IL-3 and IL-6. Human leukemic cell lines MOLM13, M12, Semk2, THP1, and K562 were cultured in RPMI medium supplemented with 10% FBS, L-glutamine, penicillin, and streptomycin. Vitamin B6 depleted medium (VB6−) was prepared by customized pyridoxin (−) RPMI (Gibco, Gaithersburg, Md.) with 10% dialyzed FBS, L-glutamine, penicillin, and streptomycin. Pyridoxin hydrochloride (Sigma, St Louis Mo.) was added back to VB6(−) medium to make the VB6 (+) medium used for leukemia and MEF culture. Control or gene targeting sgRNAs or shRNAs were delivered by lentivirus. Spin infections were performed at 37° C. and 1500 RPM for 60 minutes. After spin infection, viral supernatants were substituted with leukemic cell culture medium. For compound treatment, isoniazid was added in culture medium at indicated concentrations.
(§2) For competition and cell proliferation experiments, mouse or human leukemic cells were infected with viruses encoding sgRNAs or shRNAs. Spin infections were performed at 37 degree and 1500 RPM for 60 minutes. After spin infection, viral supernatants were substituted with leukemic cell culture medium. GFP+ percentage or cell number was monitored during culture using guava flow cytometer. The absolute cell number was measured by using flow cytometry absolute count standard (Bangs Laboratories Inc., Fishers Ind.). The experimental results were analyzed by guavasoft software.

[5] = biological target: T1, PDXK (Homo sapiens, UniProt O00764); test: Intracellular PLP levels (PDXK inhibition) in human Molm13 leukemic cells; type: cell-based; conditions: human Molm13 leukemic cells (FIG. 17B, 18B)
T1 construct: endogenous in cells; host or cells: human Molm13 (MOLM13) AML cells
T1 sequence (O00764 1-312): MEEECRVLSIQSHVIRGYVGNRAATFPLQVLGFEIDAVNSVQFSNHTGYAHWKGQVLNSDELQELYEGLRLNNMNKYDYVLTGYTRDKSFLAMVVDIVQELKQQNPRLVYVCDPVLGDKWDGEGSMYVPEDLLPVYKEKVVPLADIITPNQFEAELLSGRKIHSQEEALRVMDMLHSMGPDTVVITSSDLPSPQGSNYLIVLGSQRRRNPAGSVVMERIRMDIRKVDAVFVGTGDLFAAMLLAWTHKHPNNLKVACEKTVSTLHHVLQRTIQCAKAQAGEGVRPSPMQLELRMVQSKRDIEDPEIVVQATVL
Description: (§3) LC-MS grade solvents were purchased from Thermo Fisher Scientific (Waltham, Mass.), metabolite standards were purchased from Sigma (St. Louis, Mo.) unless stated otherwise. Nras(G12D)/MLL-AF9 cells infected with viruses encoding Pdxk shRNAs were harvested after 5 days of doxycycline induction. Human MOLM13 cells infected with viruses encoding Pdxk sgRNAs were harvested at day 11 post infection. Nras(G12D)/MLL-AF9 cells or MOLM13 cells were treated with indicated concentrations of isoniazid and harvested after 5 days treatment.
In each case, 2 million cells were collected by centrifugation at 440×g, media was aspirated and 1004 of ice-cold 10% trichloroacetic acid with or without 100 ng/mL d3-pyridoxal (d3-PL), d3-pyridoxine (d3-PN), d3-pyridoxamine (d3-PM), d3-pyridoxal phosphate (d3-PLP) (IsoSciences LLC, Ambler Pa.) was added for metabolite extraction. For experiments involving isoniazid treatment, cells were washed once with PBS to remove residual drug and minimize post-lysis reactions between isoniazid and PLP, which was confirmed by monitoring the d3-PLP internal standard. After overnight incubation at −80° C., samples were vortexed and transferred to 1.7 mL conical eppendorf tubes and centrifuged at 21,000×g for 20 min at 4° C. The supernatant was transferred to autosampler vials for LC-MS analysis. Vitamin B species separation was performed using an Agilent 1290 infinity pump and XSelect HSS T3 column (150×2.1 mm, 3.5 μm; Waters Corporation, Milford Mass.). Mobile phase A was 0.1% heptaflurobutyric acid (HFBA, Thermo Fisher, Waltham Mass.) and 0.1% formic acid (FA, Thermo Fisher, Waltham Mass.) in water, mobile phase B was 0.1% HFBA and 0.1% FA in acetonitrile. The injection volume was 10 μL and LC gradient conditions were: 0 min: 0% B; 1 min: 0% B; 7 min: 25% B; 8 min: 25% B; 9 min: 100% B; 10.5 min: 100% B, with 4.5 min of re-equilibration time. MS detection was performed using an Agilent 6230 TOF accurate mass spectrometer with Dual JetStream source operating in positive ionization mode. MS parameters were: gas temp 250° C.; gas flow: 13 L/min; nebulizer pressure: 45 psig; sheath gas temp: 225° C.; sheath gas flow: 12 L/min; VCap: 3,500 V; Fragmentor: 175 V; Skimmer: 65 V; Octopole RF: 750 V. Active mass axis correction was performed using a second nebulizer and pyridine (80.049480) and roxithromycin (837.53185). Data was acquired from m/z 50-1700 at 1.5 spectra/sec. Accurate mass (±20 ppm) and retention time was confirmed relative to the pure standards. Data analysis was performed using MassHunter software (Agilent, Santa Clara Calif.).

[6] = system: Nras(G12D)/MLL-AF9 leukemic cells; test: Metabolite rescue of isoniazid proliferative block in Nras(G12D)/MLL-AF9 leukemic cells; type: cell-based, mouse; conditions: exogenous addition of metabolite with isoniazid, day 4 (FIG. 4D-4F)
Excerpt: The average and SEM of fold of cell proliferation are shown. “*” represents p<0.05 of one-way ANOVA test, “**” represents p<0.01 of one-way ANOVA test, “***” represents p<0.001 of one-way ANOVA test. […] The average and SEM of fold of cell proliferation are shown. “*” represents p<0.05 of one-way ANOVA test, “**” represents p<0.01 of one-way ANOVA test, “***” represents p<0.001 of one-way ANOVA test. […] The average and SEM of fold of cell proliferation are shown. “*” represents p<0.05 of one-way ANOVA test, “**” represents p<0.01 of one-way ANOVA test, “***” represents p<0.001 of one-way ANOVA test.

[7] = system: bone marrow HSPCs; test: Proliferation of bone marrow HSPCs cultured with compound; type: cell-based, mouse
Excerpt: The average and STDEV of relative cell proliferation of 3 replicates are shown.
Bone marrow hematopoietic stem and progenitor cell isolation, culture, and compound treatment. For isolation of bone marrow cells, the bone marrow from the femur and tibia was flushed into ice cold PBS buffer. After red blood cell lysis with ammonium chloride (STEMCELL 07850, Vancouver Canada), the bone marrow cells were resuspended with PBS and filtered into a round bottom tube with cell strainer cap. The hematopoietic cells lineages were stained with biotin mouse lineage panel (BD Biosciences 559971, San Jose Calif.), then isolated by magnetic beads separation. For c-Kit positive cells, mouse hematopoietic cells were isolated from bone marrow using MACS CD117 isolation system. Purified bone marrow cells were cultured in RPMI medium supplemented with recombinant mouse SCF, IL-3, and IL-6. Control or Pdxk targeting sgRNAs or shRNAs were delivered by lentivirus. Spin infections were performed at 37 degree and 1500 RPM for 60 minutes. After spin infection, viral supernatants were substituted with leukemic cell culture medium. For compound treatment, isoniazid was added in culture at indicated concentrations.

[8] = system: PLP; test: Intracellular PLP levels by HPLC-MS in Nras(G12D)/MLL-AF9 leukemic cells cultured with isoniazid; type: cell-based, mouse; conditions: day 5 of culture, HPLC-MS (FIG. 2E)
Description: The abundance of PLP was measured by high-performance liquid chromatography-mass spectrometry (HPLC-MS) and normalized to the level [^3D]-labeled PLP (internal control). The average and STDEV are shown. Western blot analysis was performed to measure the expression levels of PDXK protein.
as §3
In each case, 2 million cells were collected by centrifugation at 440×g, media was aspirated and 1004 of ice-cold 10% trichloroacetic acid with or without 100 ng/mL d3-pyridoxal (d3-PL), d3-pyridoxine (d3-PN), d3-pyridoxamine (d3-PM), d3-pyridoxal phosphate (d3-PLP) (IsoSciences LLC, Ambler Pa.) was added for metabolite extraction. For experiments involving isoniazid treatment, cells were washed once with PBS to remove residual drug and minimize post-lysis reactions between isoniazid and PLP, which was confirmed by monitoring the d3-PLP internal standard. […]

[9] = system: mouse leukemic cells; test: Proliferation of mouse leukemic cell lines cultured with compound; type: cell-based; conditions: mouse leukemic cell lines with different genetic drivers, day 6 (FIG. 1I)
Description: as §1, with “Pyridoxin hydrochloride (Sigma, St Louis Mo.) was added back to VB6(−) medium to make the VB6 (+) medium used for leukemia and MEF culture. Control or gene targeting sgRNAs or shRNAs were delivered by lentivirus. Spin infections were performed at 37° C. and 1500 RPM for 60 minutes. After spin infection, viral supernatants were substituted with leukemic cell culture medium. For compound treatment, isoniazid was added in culture medium at indicated concentrations.” left out
as §2, with “Spin infections were performed at 37 degree and 1500 RPM for 60 minutes. After spin infection, viral supernatants were substituted with leukemic cell culture medium.” left out

[10] = system: human HL60 (Human promyelocytic leukemia) cells; test: Human HL60 cells cultured with myriocin; type: cell-based; conditions: day 4 of culture (FIG. 33B)

NOCC(=O)O [AOA, aminooxyacetic acid]
viability of leukemic cells in vitro [1]: reduced the viability
animal survival [2]: extended survival
leukemia disease progression (luciferase signal) [2]: significantly delayed leukemia disease maintenance
viability of leukemic cells in vitro [3]: reduced the viability

CC[C@H](CO)Nc1nc(N(C)Cc2ccccc2)c2ncn(C(C)C)c2n1 [aftin-4]
growth of human AML cells in vitro [4]: can suppress the growth; also recorded: inhibited the growth
PDXK inhibition [5]: can nhibit PDXK
intracellular levels of PLP [5]: reduced intracellular levels of PLP

NC(=O)C[C@H](N)C(=O)O [asparagine]
rescue of proliferative block produced by isoniazid [6]: partially rescued

COCc1c(CO)cnc(C)c1O [gingkotoxin]
animal survival [2]: improved survival
leukemia disease progression (luciferase signal) [2]: slowed down disease progression
growth of human AML cells in vitro [4]: suppressed tumor growth
growth of human AML cells in vitro ([4]; listed as ginkgotoxin): can suppress the growth
proliferation of bone marrow lineage negative HSPCs ([7]; bone marrow lineage negative HSPCs, day 6 (FIG. 26A-26B)): little effect
PDXK inhibition [5]: can inhibit PDXK
intracellular levels of PLP [5]: reduced intracellular levels of PLP
intracellular levels of PLP ([5]; listed as ginkgotoxin): reduce intracellular levels of PLP

NNC(=O)c1ccncc1 [isoniazid]
intracellular PLP levels [8]: reduced intracellular PLP levels
animal survival [2]: produced a survival advantage
leukemia disease progression (luciferase signal) [2]: delayed disease progression
reduction of PLP in plasma and bone marrow cells ([2]; isoniazid 90 mg/kg intraperitoneally daily, day 12 post transplant, HPLC-MS (FIG. 13B)): ~25%
proliferation of mouse leukemic cells [9]: blocked proliferation
proliferation of human leukemic cells ([4]; human leukemic cell lines, day 6 of culture (FIG. 7G, 25A-25C)): blocked proliferation
proliferation of bone marrow HSPCs [7]: only a subtle reduction
proliferation of bone marrow lineage negative HSPCs [7]: little effect

CCCCCCC(=O)CCCCCC/C=C/C[C@@H](O)[C@H](O)[C@@](N)(CO)C(=O)O [myriocin]
viability of leukemic cells in vitro [1]: reduced the viability
sensitivity of HL60 cells to treatment [10]: less sensitive

NCCCCN [putrescine]
rescue of proliferative block produced by isoniazid [6]: partially rescued

O=c1ccn([C@@H]2O[C@H](CO)[C@@H](O)[C@H]2O)c(=O)[nH]1 [uridine]
rescue of proliferative block produced by isoniazid [6]: partially rescued
